Results on twelve molecules are retold here after US20060003410A1, “Prostaglandin reductase” (priority 2004, published 2006).

Assay [1] has as its target T1, recombinant mouse PGR-2 protein (Mus musculus, UniProt Q8VDQ1).
T1 construct: The coding region of PGR-2 open reading frame was then subcloned to the expression vector pCMV-Tag2B; GST (N); made in house; host or cells: E. coli (pGEX-4T-3 vector)
As to the kind of experiment: Substrate specificity of PGR-2 (NADPH consumption, absorbance at 490 nm). The assay is classed as biochemical. The conditions noted are these: 10 μg recombinant mouse PGR-2, 0.5 mM NADPH, substrate replacing 15-keto PGE2, 37° C., 10 minutes. On the procedure:
(§1) Mouse PGR-2 was recombinantly expressed in E.coli as a GST fusion protein following standard procedures. The recombinant PGR-2 protein thus obtained was used to determine substrate specificity and enzymatic kinetics.
(§2) Enzymatic activity was determined as follows. 10 μg of the recombinant mouse PGR-2 protein was incubated at 37° C. in a reaction buffer containing 0.1M Tris-HCl (pH7.4), 0.5 mM NADPH, and 0.57 mM 15-keto PGE2. The reaction was conducted at 37° C. in the dark for 10 minutes and terminated by adding 700 μl of a buffer which contained 50 mM potassium hydrogen phthalate, pH 3.0, and 1% Tween 20. 200 μl of a color development reagent, which contained 790 μM indonitrotetrazolium chloride, 60 μM phenazene methosulfate, and 1% Tween 20, was added to oxidize any unreacted NADPH. Absorbance at 490 nm was measured by an ELISA plate reader. A standard curve was generated using reaction buffers containing serially diluted amounts of NADPH.
Substrate specificity of PGR-2 was determined using the just-described procedure, except that 15-keto PGE2 was replaced with each of six prostaglandin substrates, each of three downstream metabolites, or leukotriene B4.

In the next assay the test system is endogenous PPAR. In words: Reporter gene assay of endogenous PPAR activity in differentiating 3T3-L1 cells. The assay is classed as cell-based, mouse. The conditions noted are these: 3T3-L1 cells induced to differentiate for two days, transfected with a reporter gene. The method, then:
(§3) The effect of prostaglandin on PPAR-gamma activity in adipocytes was investigated. After treatment with a medium that induces cell differentiation, 3T3-L1 cells were treated from day 2 to 4 during adipogenesis with 14 μM 15-keto PGE2, 13,14-dihydro-15-keto PGE2 , 15-keto PGF2α, 13,14-dihydro-15-keto PGF2α, or 4.5 μm of BRL49653, a PPAR-gamma agonist. See Forman et al., Cell (1995) 83:803-812. At day 6, aggregates of lipid droplets were stained with oil-red O for observation. […] After being induced to differentiate for two days, the 3T3-L1 cells were transfected with a reporter gene.
In general terms: A reporter such as luciferase makes a cellular process visible.

The test system of the next assay is PPAR-gamma. In words: Luciferase reporter with PPAR-gamma ligand-binding domain fused to yeast GAL4 DNA-binding domain in 3T3-L1 cells. It counts as cell-based. The source says: (§4) A luciferase reporter gene was transfected to 3T3-L1 cells together with the ligand-binding domain of PPAR-alpha, PPAR-gamma or PPAR-delta fused to a yeast GAL4 DNA-binding domain.
In assay [2] the test system is 3T3-L1 cells. As to the kind of experiment: Protein expression of adipogenesis-specific, PPAR-gamma target genes in 3T3-L1 cells. To be noted: for IRS-1 protein expression: 3T3-L1 cells. The assay is classed as cell-based, mouse. The source says:
Also examined was the ability of 15-keto PGE2 to induce protein expression of adipogenesis-specific, PPAR-gamma target genes, i.e., IRS-1 and -2.

Another assay addresses T2, PPAR-alpha (Homo sapiens, UniProt Q07869).
T2 construct: expressed in transfected cells; host or cells: 3T3-L1 cells
T2 sequence (Q07869 239-466 limits assumed): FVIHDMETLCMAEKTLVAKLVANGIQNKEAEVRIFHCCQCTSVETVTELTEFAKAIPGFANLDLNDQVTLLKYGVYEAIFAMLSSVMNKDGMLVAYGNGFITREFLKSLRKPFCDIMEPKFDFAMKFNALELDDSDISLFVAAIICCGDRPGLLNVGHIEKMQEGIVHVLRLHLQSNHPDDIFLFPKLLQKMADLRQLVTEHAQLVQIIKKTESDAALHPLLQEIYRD
In words: Luciferase reporter with PPAR-alpha ligand-binding domain fused to yeast GAL4 DNA-binding domain in 3T3-L1 cells. The conditions noted are these: compared with PPAR-gamma. It counts as cell-based.
Source text: as §4

In assay [3] the test system is 3T3-L1 cells. In words: Adipogenesis in 3T3-L1 cells, lipid droplets stained with oil-red O. It counts as cell-based, mouse. The conditions noted are these: 14 μM, treated day 2 to 4 during adipogenesis, stained at day 6. On the procedure: as §3
The target of assay [4] is T1, recombinant mouse PGR-2 protein. As to the kind of experiment: Kinetics studies of PGR-2 catalyzed conversion. To be noted: order: 15-keto PGE2, then 15-keto PGF1α, 15-keto PGE1, 15-keto PGF2α. The assay is classed as biochemical. On the procedure: as §1, §2
Unlike PGR/LTB4DH, PGR-2 used NADPH as a cofactor much more efficiently than NADH.

T1 sequence (Q8VDQ1 whole entry): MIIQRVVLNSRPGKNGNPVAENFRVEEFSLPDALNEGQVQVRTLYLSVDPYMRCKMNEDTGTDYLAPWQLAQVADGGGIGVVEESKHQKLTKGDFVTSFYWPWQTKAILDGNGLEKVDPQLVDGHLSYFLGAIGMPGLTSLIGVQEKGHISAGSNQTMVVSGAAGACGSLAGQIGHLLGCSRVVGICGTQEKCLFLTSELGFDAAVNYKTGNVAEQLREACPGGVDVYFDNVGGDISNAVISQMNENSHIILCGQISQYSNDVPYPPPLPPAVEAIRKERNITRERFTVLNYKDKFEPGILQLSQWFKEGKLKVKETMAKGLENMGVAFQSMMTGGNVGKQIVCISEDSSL

Turning to `CCCCC[C@H](O)/C=C/[C@@H]1[C@@H](CC(=O)CCCCC(=O)O)[C@@H](O)C[C@H]1O` [6-keto PGF1α], the “specific activity with PGR-2 (substrate specificity)” value (“specific activity” below) in assay [1] is given as “no specific activity was detected”.
On to `CCCCC[C@H](O)/C=C/[C@@H]1[C@@H](C/C=C\CCCC(=O)O)[C@@H](O)C[C@@H]1O` [11b-PGF2α], for which the “specific activity” value in assay [1] is “no specific activity was detected”.
Consider `CCCCCC(=O)CCC1C(=O)CC(O)C1C/C=C\CCCC(=O)O` (stereo not shown) [13,14-dihydro-15-keto PGD2], for which the “specific activity” value in assay [1] is listed as “no specific activity was detected”.
Turning to `CCCCCC(=O)CC[C@H]1[C@H](O)CC(=O)[C@@H]1C/C=C\CCCC(=O)O` [13,14-dihydro-15-keto PGE2], in the assay with endogenous PPAR, the “endogenous PPAR activity (reporter gene)” value is recorded as “failed to increase PPAR activity”. Besides, in assay [1], the “specific activity” value is given as “no specific activity was detected”.
In the same order, the values of `CCCCCC(=O)CC[C@@H]1[C@@H](C/C=C\CCCC(=O)O)[C@@H](O)C[C@H]1O` [13,14-dihydro-15-keto PGF2α] are “failed to increase PPAR activity” and “no specific activity was detected”.
For the molecule `CCCCCC(=O)/C=C/[C@H]1[C@H](O)CC(=O)[C@@H]1CCCCCCC(=O)O` [15-keto PGE1], the “specific activity” value in assay [1] is reported as “reacted specifically with PGR-2”.
`CCCCCC(=O)/C=C/[C@H]1[C@H](O)CC(=O)[C@@H]1C/C=C\CCCC(=O)O` [15-keto PGE2]: the “activation of PPAR-gamma (GAL4 fusion, luciferase reporter)” value in the assay with PPAR-gamma is “activated”. Also, the IRS-1 protein expression entry in the assay on 3T3-L1 cells [2] is recorded as “did not increase”. Moreover, in the assay on 3T3-L1 cells [2] (added with MIX, insulin and dexamethasone), the “PPAR-gamma1 and PPAR-gamma2 protein expression” value is reported as “significantly enhanced”. Further, the “expression of aP2, an adipocyte-specific marker” value in the assay with 3T3-L1 cells [2] (even in the absence of MIX) was “strongly induced”. Also, the IRS-2 expression result with 3T3-L1 cells [2] (in the presence of insulin and dexamethasone) is recorded as “enhanced the expression to a level similar to MIX”. Also, the “endogenous PPAR activity (reporter gene)” value in the assay with endogenous PPAR is “enhanced endogenous PPAR activity significantly”. Also, the “activation of PPAR-alpha (GAL4 fusion, luciferase reporter)” value at PPAR-alpha is reported as “to a lesser degree”. The “adipogenesis (aggregates of lipid droplets, oil-red O)” value with 3T3-L1 cells [3] is “effectively enhanced adipogenesis at a level similar to BRL49653”. For the same molecule, in assay [4], the “efficiency of PGR-2 catalyzed conversion (rank order)” value was “most efficiently”.
For `CCCCCC(=O)/C=C/[C@@H]1[C@@H](CCCCCCC(=O)O)[C@@H](O)C[C@H]1O` [15-keto PGF1α], the “specific activity” value in assay [1] is listed as “reacted specifically with PGR-2”.
With `CCCCCC(=O)/C=C/[C@@H]1[C@@H](C/C=C\CCCC(=O)O)[C@@H](O)C[C@H]1O` [15-keto PGF2α], the “activation of PPAR-gamma (GAL4 fusion, luciferase reporter)” value with PPAR-gamma is “activated”. The “endogenous PPAR activity (reporter gene)” value in the assay with endogenous PPAR is on record as “enhanced endogenous PPAR activity significantly”. For the same molecule, the “activation of PPAR-alpha (GAL4 fusion, luciferase reporter)” value at PPAR-alpha is reported as “to a lesser degree”. Further, the “specific activity” value in assay [1] is given as “reacted specifically with PGR-2”.
`CC(C)Cn1c(=O)n(C)c(=O)c2[nH]cnc21` [MIX, methylisobutylxanthine]: in the assay with 3T3-L1 cells [2], the IRS-1 protein expression entry is given as “induced IRS-1 expression”.
As for `CCCCC[C@H](O)/C=C/[C@@H]1[C@@H](C/C=C\CCCC(=O)O)[C@H](O)C[C@H]1O` [PGF2β], the “specific activity” value in assay [1] was “no specific activity was detected”.
Turning to `CCCCC/C=C\C[C@@H](O)/C=C/C=C/C=C\[C@@H](O)CCCC(=O)O` [leukotriene B4], the “specific activity” value in assay [1] is “no specific activity was detected”.
